Measurements reported in patent publication US20160326142A1, “PYRAZOLE CARBOXAMIDE COMPOUNDS, COMPOSITIONS AND METHODS OF USE” (Genentech, Inc., priority 2012, published 2016).

Biological target: T1, ITK (Homo sapiens, UniProt Q08881)
T1 construct: purchased Invitrogen PV3875
T1 sequence (Q08881 1-620): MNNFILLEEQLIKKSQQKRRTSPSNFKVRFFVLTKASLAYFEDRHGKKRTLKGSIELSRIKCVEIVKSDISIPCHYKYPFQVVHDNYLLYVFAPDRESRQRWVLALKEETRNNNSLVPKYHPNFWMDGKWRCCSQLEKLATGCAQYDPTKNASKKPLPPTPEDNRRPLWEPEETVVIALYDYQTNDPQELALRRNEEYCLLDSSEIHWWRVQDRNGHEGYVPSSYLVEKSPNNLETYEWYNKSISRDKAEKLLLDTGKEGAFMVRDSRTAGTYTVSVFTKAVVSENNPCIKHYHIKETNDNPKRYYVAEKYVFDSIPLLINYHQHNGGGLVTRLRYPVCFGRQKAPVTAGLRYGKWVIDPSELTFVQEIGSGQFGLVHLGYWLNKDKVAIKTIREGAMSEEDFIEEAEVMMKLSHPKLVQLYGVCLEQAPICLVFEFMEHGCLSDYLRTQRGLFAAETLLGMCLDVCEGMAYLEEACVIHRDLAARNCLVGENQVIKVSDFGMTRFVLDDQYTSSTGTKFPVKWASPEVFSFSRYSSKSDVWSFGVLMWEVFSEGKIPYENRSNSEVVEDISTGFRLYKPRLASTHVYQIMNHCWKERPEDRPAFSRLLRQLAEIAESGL
Assay: ITK enzyme assay (Caliper or LCMS peptide phosphorylation)
Format: biochemical
Settings: purified ITK (Invitrogen PV3875), 20 μM ATP, Ki by Morrison's quadratic equation
Method in brief: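 Purified human ITK peptide phosphorylation, quenched with EDTA (50 mM final) for Caliper LabChip separation or TCA (5% v/v final) for UPLC-MS/MS MRM quantification. Ki derived via Morrison tight-binding equation, corrected for competitive inhibition using ATP concentration relative to Km,app.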

Ki	SMILES
40 nM	CN(C)CCC(c1ccccc1)n1cc(NC(=O)c2n[nH]c3c2CCC2(CCCO2)C3)cn1 (stereo not drawn) [Example 59, N-(1-(3-(dimethylamino)-1-phenylpropyl)-1H-pyrazol-4-yl)-1′,4,4′,5,5′,7′-hexahydro-3H-spiro[furan-2,6′-indazole]-3′-carboxamide]
2 nM	CC12Cc3[nH]nc(C(=O)Nc4cnn(C(CCS(C)(=O)=O)c5ccccc5)c4)c3CC1C2 (stereo not drawn) [Example 69a, 5a-methyl-N-(1-(3-(methylsulfonyl)-1-phenylpropyl)-1H-pyrazol-4-yl)-1,4,4a,5,5a,6-hexahydrocyclopropa[f]indazole-3-carboxamide]
4000 nM	CC1(C)Cc2[nH]nc(C(=O)Nc3cnn(Cc4ccccc4)c3)c2CCO1 [Example 71a, N-(1-benzyl-1H-pyrazol-4-yl)-7,7-dimethyl-4,5,7,8-tetrahydro-1H-oxepino[4,5-c]pyrazole-3-carboxamide]
790 nM	CC1(C)Cc2c(C(=O)Nc3cnn(Cc4ccccc4)c3)n[nH]c2CCO1 [Example 71b, N-(1-benzyl-1H-pyrazol-4-yl)-5,5-dimethyl-4,5,7,8-tetrahydro-1H-oxepino[4,5-c]pyrazole-3-carboxamide]
78 nM	CN(C)CCn1cc(NC(=O)c2n[nH]c3c2CCC(C)(C)C3)cn1 [Example 72, N-(1-(2-(dimethylamino)ethyl)-1H-pyrazol-4-yl)-6,6-dimethyl-4,5,6,7-tetrahydro-1H-indazole-3-carboxamide]
0.3 nM	CC1(C)CCc2c(C(=O)Nc3cnn(C(c4ccccc4)C4CN(CCF)C4)c3)n[nH]c2C1 (stereo not drawn) [Example 75b, N-(1-((1-(2-fluoroethyl)azetidin-3-yl)(phenyl)methyl)-1H-pyrazol-4-yl)-6,6-dimethyl-4,5,6,7-tetrahydro-1H-indazole-3-carboxamide]
61 nM	O=C(Nc1cnn(Cc2ccccc2)c1)c1n[nH]c2c1CC1(COC1)C2 [Example 82, N-(1-benzyl-1H-pyrazol-4-yl)-4,6-dihydro-1H-spiro[cyclopenta[c]pyrazole-5,3′-oxetane]-3-c arboxamide]
8 nM	CC1(C)CCc2c(C(=O)Nc3cnn(Cc4ccnc(N)c4)c3)n[nH]c2C1 [Example 111, N-(1-((2-aminopyridin-4-yl)methyl)-1H-pyrazol-4-yl)-6,6-dimethyl-4,5,6,7-tetrahydro-1H-indazole-3-carboxamide]
6 nM	CC1(C)CCc2c(C(=O)Nc3cnn(Cc4cccnc4N)c3)n[nH]c2C1 [Example 112, N-(1-((2-aminopyridin-3-yl)methyl)-1H-pyrazol-4-yl)-6,6-dimethyl-4,5,6,7-tetrahydro-1H-indazole-3-carboxamide]
34 nM	O=C(Nc1cnn(Cc2ccccc2)c1)c1n[nH]c2c1CCC1(CSC1)C2 [Example 118, N-(1-benzyl-1H-pyrazol-4-yl)-1,4,5,7-tetrahydrospiro[indazole-6,3′-thietane]-3-carboxamide]
4 nM	CN(CCC(c1ccccc1)n1cc(NC(=O)c2n[nH]c3c2CCC(C)(C)C3)cn1)S(C)(=O)=O (stereo not drawn) [Example 122, 6,6-dimethyl-N-(1-(3-(N-methylmethylsulfonamido)-1-phenylpropyl)-1H-pyrazol-4-yl)-4,5,6,7-tetrahydro-1H-indazole-3-carboxamide]
4000 nM	CN1CCC2(CCc3c(C(=O)Nc4cnn(Cc5ccccc5)c4)n[nH]c3C2)C1=O (stereo not drawn) [Example 123b, N-(1-benzyl-1H-pyrazol-4-yl)-1′-methyl-2′-oxo-1,4,5,7-tetrahydrospiro[indazole-6,3′-pyrrolidine]-3-carboxamide]
140 nM	O=C(Nc1cnn(Cc2ccccc2)c1)c1n[nH]c2c1CCCCC2 [Example 124, N-(1-benzyl-1H-pyrazol-4-yl)-1,4,5,6,7,8-hexahydrocyclohepta[c]pyrazole-3-carboxamide]
42 nM	CC1(C)CCc2c(C(=O)Nc3cnn(C(c4ccccc4)C4CS(=O)(=O)CCN4)c3)n[nH]c2C1 (stereo not drawn) [Example 128a, N-(1-((1,1-dioxidothiomorpholin-3-yl)(phenyl)methyl)-1H-pyrazol-4-yl)-6,6-dimethyl-4,5,6,7-tetrahydro-1H-indazole-3-carboxamide]
< 0.1 nM	CC12Cc3[nH]nc(C(=O)Nc4cnn(C(c5ccccc5)C5CCS(=O)(=O)CC5)c4)c3CC1C2(F)F (stereo not drawn) [Example 141, N-(1-((1,1-dioxidotetrahydro-2H-thiopyran-4-yl)(phenyl)methyl)-1H-pyrazol-4-yl)-5,5-difluoro-5a-methyl-1,4,4a,5,5a,6-hexahydrocyclopropa[f]indazole-3-carboxamide]
